Test results published in ChEMBL document CHEMBL1129665, “2-Sulfonyl-4-chloroanilino moiety: a potent pharmacophore for the anti-human immunodeficiency virus type 1 activity of pyrrolyl aryl sulfones” (J Med Chem, 1996).

Tests used:
MT4 [1] = experiment: Selectivity index expressed as the ratio of CC50/ EC50; format: functional, Homo sapiens
MT4 [2] = experiment: Effective concentration against HIV-1 induced cytopathogenicity in MT-4 cells; format: functional, cell-based; settings: Homo sapiens
MT4 [3] = experiment: Concentration required to reduce the viability of mock-infected MT-4 cells by 50%; format: functional; settings: Homo sapiens
[4] = molecular target: Human immunodeficiency virus type 2 pol protein (Human immunodeficiency virus 2, UniProt P88142); experiment: Inhibitory activity against HIV rRT activity in HIV-2
[5] = molecular target: Human immunodeficiency virus type 1 reverse transcriptase (Human immunodeficiency virus 1, UniProt Q72547, Y181C); experiment: Inhibitory activity against HIV rRT activity in mutant HIV-1 strain resistant to Nevirapine (Y181C)
[6] = molecular target: Human immunodeficiency virus type 1 reverse transcriptase (Human immunodeficiency virus 1, UniProt Q72547, L100I); experiment: Inhibitory activity against HIV rRT activity in HIV-1 mutant resistant to TIBO(L100I) strain
[7] = molecular target: Human immunodeficiency virus type 1 reverse transcriptase (Human immunodeficiency virus 1, UniProt Q72547); experiment: Inhibitory activity against HIV rRT activity in wild type IIIB strain

Sequence of Human immunodeficiency virus type 2 pol protein (P88142 whole entry): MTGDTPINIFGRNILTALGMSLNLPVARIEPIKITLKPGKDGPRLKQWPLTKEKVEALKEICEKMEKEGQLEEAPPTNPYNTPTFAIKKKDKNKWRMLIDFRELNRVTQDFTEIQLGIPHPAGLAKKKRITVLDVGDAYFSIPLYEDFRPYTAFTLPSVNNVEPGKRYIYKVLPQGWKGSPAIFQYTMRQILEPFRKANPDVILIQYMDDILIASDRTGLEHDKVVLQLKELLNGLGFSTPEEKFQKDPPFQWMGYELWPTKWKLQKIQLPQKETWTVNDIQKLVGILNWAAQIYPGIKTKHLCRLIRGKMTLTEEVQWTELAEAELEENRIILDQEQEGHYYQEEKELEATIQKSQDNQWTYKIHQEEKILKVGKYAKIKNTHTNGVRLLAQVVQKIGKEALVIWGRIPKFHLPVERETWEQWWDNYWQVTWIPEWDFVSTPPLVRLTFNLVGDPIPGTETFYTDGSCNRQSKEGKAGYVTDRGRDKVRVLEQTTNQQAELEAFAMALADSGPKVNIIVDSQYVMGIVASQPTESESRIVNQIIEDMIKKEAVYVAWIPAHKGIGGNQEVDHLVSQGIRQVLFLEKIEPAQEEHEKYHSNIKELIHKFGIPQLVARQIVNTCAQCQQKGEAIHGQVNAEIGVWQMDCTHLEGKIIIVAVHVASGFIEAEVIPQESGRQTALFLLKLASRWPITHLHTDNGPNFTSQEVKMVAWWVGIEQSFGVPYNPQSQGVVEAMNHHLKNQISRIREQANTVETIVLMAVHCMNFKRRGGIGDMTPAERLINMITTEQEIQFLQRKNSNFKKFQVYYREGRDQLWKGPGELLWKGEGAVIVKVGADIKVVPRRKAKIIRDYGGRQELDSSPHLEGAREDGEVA

SMILES	Ratio (MT4 [1])	EC50 (MT4 [2]) [µM]	CC50 (MT4 [3]) [µM]	IC50 [4] [µM]	IC50 [5] [µM]	IC50 [6] [µM]	IC50 [7] [nM]
COC(=O)c1cccn1S(=O)(=O)c1cc(N)ccc1Cl	2	75	150				
Nc1ccc(Cl)cc1S(=O)(=O)n1cccc1	2	95	165				
COC(=O)c1cccn1S(=O)(=O)c1ccccc1N	>14	22	> 300				
CCOC(=O)CC(=O)Nc1ccc(Cl)cc1S(=O)(=O)n1cccc1C(=O)OCC	111	2.6	290	> 20	> 20	> 20	> 20000
CCOC(=O)c1cccn1S(=O)(=O)c1ccccc1N	>30	10	> 300				
C=CCOC(=O)c1cccn1S(=O)(=O)c1cc(Cl)ccc1[N+](=O)[O-]		> 4.3	4.3				
O=C(NC1CCCCC1)c1cccn1S(=O)(=O)c1ccccc1F		> 300	300				
CCOC(=O)c1cccn1S(=O)(=O)c1cc(N)ccc1Cl		> 72	72				
CC(=O)c1cccn1S(=O)(=O)c1ccccc1[N+](=O)[O-]	50	2	100				
O=C(NCc1ccccc1)c1cccn1S(=O)(=O)c1ccccc1F	7	40	> 300				
COC(=O)c1cccn1S(=O)(=O)c1ccc(Cl)cc1[N+](=O)[O-]		> 300	> 300				
CCOC(=O)c1cccn1S(=O)(=O)c1cc(Cl)ccc1NC(=O)CC	>300	1	> 300	> 20	> 20	> 20	> 20000
O=[N+]([O-])c1ccccc1S(=O)(=O)n1cccc1		> 36	36				
Nc1ccc(Cl)cc1S(=O)(=O)n1ccc2ccccc21		1	1				
Nc1ccccc1S(=O)(=O)n1ccc2ccccc21	5	11	58				
C=CCOC(=O)c1cccn1S(=O)(=O)c1cc(Cl)ccc1N	250	0.4	100	> 20	14	> 20	900
CCOC(=O)c1cccn1S(=O)(=O)c1ccccc1Cl	5	27	141				
CCNc1ccc(Cl)cc1S(=O)(=O)n1cccc1C(=O)OCC		> 300	300				
CC(C)OC(=O)c1cccn1S(=O)(=O)c1cc(Cl)ccc1N	>2140	0.14	> 300	> 20	8	14	270
Nc1ccc(Cl)cc1S(=O)(=O)n1cccc1C(=O)OCc1ccccc1	>2	150	> 300				
O=C(OCc1ccccc1)c1cccn1S(=O)(=O)c1cc(Cl)ccc1[N+](=O)[O-]		> 300	300				
O=CNNC(=O)c1cccn1S(=O)(=O)c1ccccc1F		> 300	300				
CCOC(=O)c1cccn1S(=O)(=O)c1cc(C)ccc1[N+](=O)[O-]	>30.6	9.8	> 300	> 20	> 20	> 20	5000

SMILES	Ratio (MT4 [1])	EC50 (MT4 [2]) [µM]	CC50 (MT4 [3]) [µM]	IC50 [4] [µM]	IC50 [5] [µM]	IC50 [6] [µM]	IC50 [7] [nM]
O=[N+]([O-])c1ccc(Cl)c(S(=O)(=O)n2ccc3ccccc32)c1		> 3	3				
O=[N+]([O-])c1ccc(Cl)c(S(=O)(=O)n2cccc2)c1		> 2	2				
CCOC(=O)c1cccn1S(=O)(=O)c1cc(C)ccc1N	>176	1.7	> 300	> 20	> 20	> 20	4000
CCOC(=O)c1cccn1S(=O)(=O)c1cc([N+](=O)[O-])ccc1Cl		> 6	6				
Nc1cc(Cl)ccc1S(=O)(=O)n1cccc1		> 75	75				
O=[N+]([O-])c1ccc(Cl)cc1S(=O)(=O)n1cccc1		> 2	2				
CCOC(=O)c1cccn1S(=O)(=O)c1cc(Cl)ccc1NC(C)=O	>=300	1	> 300	> 20	> 20	> 20	> 20000
COC(=O)c1cccn1S(=O)(=O)c1cc(Cl)ccc1[N+](=O)[O-]	1.2	10	12				
CCOC(=O)c1cccn1S(=O)(=O)c1cc(Cl)ccc1NC		> 300	300				
CCOC(=O)c1cccn1S(=O)(=O)c1cc(Cl)c(Cl)cc1[N+](=O)[O-]		> 5	5				
Nc1ccc(Cl)c(S(=O)(=O)n2ccc3ccccc32)c1	>2	150	> 300				
O=C(O)c1cccn1S(=O)(=O)c1ccccc1F		> 300	> 300				
COC(=O)c1cccn1S(=O)(=O)c1cc(Cl)ccc1N	>1666	0.18	> 300	> 20	6.9	7.4	450
COC(=O)c1cccn1S(=O)(=O)c1ccc(Cl)cc1N		> 248	248				
CCOC(=O)c1cccn1S(=O)(=O)c1cc(Cl)ccc1N	>2140	0.14	> 300	> 20	7.5	8.5	400
O=[N+]([O-])c1ccccc1S(=O)(=O)n1ccc2ccccc21	5	5	24				
CNc1ccccc1S(=O)(=O)n1cccc1		> 300	> 300				
COC(=O)c1cccn1S(=O)(=O)c1cc([N+](=O)[O-])ccc1Cl		> 12	12				
O=C(NC1CC1)c1cccn1S(=O)(=O)c1ccccc1F		> 300	300				
CCOC(=O)c1cccn1S(=O)(=O)c1cc(Cl)c(Cl)cc1N	>25	12	> 300				
Nc1ccc(Cl)c(S(=O)(=O)n2cccc2)c1		> 91	91				
Nc1cc(Cl)ccc1S(=O)(=O)n1ccc2ccccc21		> 37	37				
O=C(O)c1cccn1S(=O)(=O)c1ccccc1Cl		247	> 300				

SMILES	Ratio (MT4 [1])	EC50 (MT4 [2]) [µM]	CC50 (MT4 [3]) [µM]	IC50 [4] [µM]	IC50 [5] [µM]	IC50 [6] [µM]	IC50 [7] [nM]
CCCOC(=O)c1cccn1S(=O)(=O)c1cc(Cl)ccc1N	500	0.22	110	> 20	5	10	400
CCCCNc1ccc(Cl)cc1S(=O)(=O)n1cccc1C(=O)OCC		> 300	> 300				
COC(=O)c1cccn1S(=O)(=O)c1ccccc1[N+](=O)[O-]	>60	5	> 300				
CCOC(=O)c1cccn1S(=O)(=O)c1ccccc1F	10	13	132				
O=[N+]([O-])c1cc(Cl)ccc1S(=O)(=O)n1cccc1		> 15	15				
CCOC(=O)c1cccn1S(=O)(=O)c1cc(Cl)ccc1NC=O	>300	1	> 300	> 20	> 20	> 20	> 20000
CCOC(=O)c1cccn1S(=O)(=O)c1ccc(Cl)cc1N		> 238	238				
CCCOC(=O)c1cccn1S(=O)(=O)c1cc(Cl)ccc1[N+](=O)[O-]		> 10	10				
O=[N+]([O-])c1ccc(Cl)cc1S(=O)(=O)n1ccc2ccccc21		> 2	2				
CCOC(=O)c1cccn1S(=O)(=O)c1ccccc1[N+](=O)[O-]	>20	15	> 300				
CC(C)OC(=O)c1cccn1S(=O)(=O)c1cc(Cl)ccc1[N+](=O)[O-]	>10	30	> 300				
CCN(CC)CCOC(=O)c1cccn1S(=O)(=O)c1cc(Cl)ccc1[N+](=O)[O-]		> 30	30				
O=[N+]([O-])c1cc(Cl)ccc1S(=O)(=O)n1ccc2ccccc21		> 8	8				
CCOC(=O)c1cccn1S(=O)(=O)c1ccc(Cl)cc1[N+](=O)[O-]	>20	15	> 300				
CCOC(=O)c1cccn1S(=O)(=O)c1cc(Cl)ccc1[N+](=O)[O-]		> 12	12				
Nc1ccccc1S(=O)(=O)n1cccc1		> 228	228				
CCN(CC)CCOC(=O)c1cccn1S(=O)(=O)c1cc(Cl)ccc1N	13.5	12	162				
CC(C)=CCN1Cc2cccc3nc(S)n(c23)C[C@H]1C				> 20	9	> 20	900
CCOC(=O)c1cc2ccccc2n1S(=O)(=O)c1cc(Cl)ccc1N	28	1.8	50				
CCOC(=O)c1cc2ccccc2n1S(=O)(=O)c1cc(Cl)ccc1[N+](=O)[O-]		> 100	> 100				
Cc1ccnc2c1NC(=O)c1cccnc1N2C1CC1 [NEVIRAPINE]			< 300	> 20			
Cc1cn([C@H]2C[C@H](N=[N+]=[N-])[C@@H](CO)O2)c(=O)[nH]c1=O [ZIDOVUDINE]	>2000		> 20				
